Results taken from patent US20240083861A1, “HSD17B13 INHIBITORS AND USES THEREOF” (FL2022-001, Inc., priority 2020, published 2024).

Target: T1, Recombinant human HSD17B13 enzyme (Homo sapiens, UniProt Q7Z5P4)
T1 sequence (Q7Z5P4 20-300): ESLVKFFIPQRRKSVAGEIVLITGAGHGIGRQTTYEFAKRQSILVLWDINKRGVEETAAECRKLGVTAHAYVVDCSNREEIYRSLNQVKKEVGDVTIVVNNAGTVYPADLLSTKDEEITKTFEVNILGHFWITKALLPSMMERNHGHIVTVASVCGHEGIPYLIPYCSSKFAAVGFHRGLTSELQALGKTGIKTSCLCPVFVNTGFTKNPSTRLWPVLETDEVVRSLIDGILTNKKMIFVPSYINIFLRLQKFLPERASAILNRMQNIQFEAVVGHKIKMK
Assay: HSD17b13 NAD(P)H-Glo biochemical assay
Conditions: 50 uM estradiol, 1 mM NAD+, NAD(P)H-Glo luminescence; read-out: HSD17β13 IC50
How it was run: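 Recombinant human HSD17B13 in 20 mM Tris pH7.4 with 0.002% Tween-20 and 0.02% BSA was preincubated with inhibitor for 20 minutes at RT. The reaction ran 3 hours at 37° C with 50 uM estradiol and 1 mM NAD+ (final). NADH formed was detected by NAD(P)H-Glo luminescence after 1 hour at RT.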

Row | Compound | IC50 [nM]
1 | CS(=O)(=O)N1CCN(c2ccc3oc(-c4cc(C(F)(F)F)c(F)c(O)c4F)nc3c2)CC1 [Compound 7, 2,6-Difluoro-3-(5-(4-(methylsulfonyl)piperazin-1-yl)benzo[d]oxazol-2-yl)-5-(trifluoromethyl)phenol] | 100 to 1000
2 | Cn1nc(-c2cc(C(F)(F)F)c(F)c(O)c2F)c2cnc(N3CCOCC3C3CC3)cc21 (stereo not shown) [Compound 9.38, 3-(6-(3-Cyclopropylmorpholino)-1-methyl-1H-pyrazolo[4,3-c]pyridin-3-yl)-2,6-difluoro-5-(trifluoromethyl)phenol] | < 100
3 | COC1CCN(C(=O)c2ccc3oc(-c4cc(O)c(F)c(F)c4)nc3c2)CC1 [Compound 1.08, (2-(3,4-Difluoro-5-hydroxyphenyl)benzo[d]oxazol-5-yl)(4-methoxypiperidin-1-yl)methanone] | 1000 to 30000
4 | Cn1nc(-c2cc(C(F)(F)F)c(F)c(O)c2F)c2cnc(N3CCC(C(N)=O)CC3)nc21 [Compound 18.09, 1-(3-(2,4-Difluoro-3-hydroxy-5-(trifluoromethyl)phenyl)-1-methyl-1H-pyrazolo[3,4-d]pyrimidin-6-yl)piperidine-4-carboxamide] | < 100
5 | Cn1nc(-c2cc(C(F)(F)F)c(F)c(O)c2F)c2cnc(N3CCN(S(C)(=O)=O)C(C)(C)C3)nc21 [Compound 18.64, 3-(6-(3,3-Dimethyl-4-(methylsulfonyl)piperazin-1-y1)-1-methyl-1H-pyrazolo[3,4-d]pyrimidin-3-y1)-2,6-difluoro-5-(trifluoromethyl)phenol] | < 100
6 | Oc1cc(-c2n[nH]c3cc(-c4ccc(O)c(Cl)c4)ccc23)ccc1F [Compound 16, 2-Chloro-4-(3-(4-fluoro-3-hydroxyphenyl)-1H-indazol-6-yl)phenol] | 100 to 1000
7 | Cn1nc(-c2cc(C(F)(F)F)c(F)c(O)c2F)c2cnc(N3CCS(=O)(=O)CC3C3CC3)cc21 (stereo not shown) [Compound 9.126, 3-Cyclopropyl-4-(3-(2,4-difluoro-3-hydroxy-5-(trifluoromethyl)phenyl)-1-methyl-1H-pyrazolo[4,3-c]pyridin-6-yl)thiomorpholine 1,1-dioxide] | < 100
8 | Cn1nc(-c2cc(C(F)(F)F)c(F)c(O)c2F)c2cnc(N3CCN(C(=O)Nc4ccccc4)C4(CC4)C3)cc21 [Compound 21.08, 7-(3-(2,4-Difluoro-3-hydroxy-5-(trifluoromethyl)phenyl)-1-methyl-1H-pyrazolo[4,3-c]pyridin-6-y1)-N-phenyl-4,7-diazaspiro[2.5]octane-4-carboxamide] | < 100
9 | Cn1nc(-c2cc(C(F)(F)F)c(F)c(O)c2F)c2cnc(N3CCN(C(=O)Nc4ccccc4)CC34CCC4)cc21 [Compound 21.05, 5-(3-(2,4-Difluoro-3-hydroxy-5-(trifluoromethyl)phenyl)-1-methyl-1H-pyrazolo[4,3-c]pyridin-6-y1)-N-phenyl-5,8-diazaspiro[3.5]nonane-8-carboxamide] | < 100
10 | Cn1nc(-c2cc(C(F)(F)F)c(F)c(O)c2F)c2cnc(N3CCCCC3)nc21 [Compound 18.35, 2,6-Difluoro-3-(1-methyl-6-(piperidin-1-yl)-1H-pyrazolo[3,4-d]pyrimidin-3-y1)-5-(trifluoromethyl)phenol] | < 100
11 | N#CC1(NC(=O)c2ccc3oc(-c4cc(C(F)(F)F)c(F)c(O)c4F)nc3c2)CCC1 [Compound 1.25, N-(1-Cyanocyclobutyl)-2-(2,4-difluoro-3-hydroxy-5-(trifluoromethyl)phenyl)benzo[d]oxa-zole-5-carboxamide] | < 100
12 | Cn1nc(-c2cc(C(F)(F)F)cc(O)c2F)c2ccc(N3CCN(S(C)(=O)=O)CC3)cc21 [Compound 9.02, 2-Fluoro-3-(1-methyl-6-(4-(methylsulfonyl)piperazin-1-yl)-1H-indazol-3-yl)-5-(trifluoromethyl)phenol] | 1000 to 30000
13 | CS(=O)(=O)N1CCN(c2ncc3c(-c4cc(O)c(F)c(C(F)(F)F)c4)n[nH]c3n2)CC1 [Compound 10, 2-Fluoro-5-(6-(4-(methylsulfonyl)piperazin-1-yl)-1H-pyrazolo[3,4-d]pyrimidin-3-yl)-3-(trifluoromethyl)phenol] | 100 to 1000
14 | Cn1nc(-c2cc(C(F)(F)F)c(F)c(O)c2F)c2cnc(N3CCC4(CCO4)CC3)nc21 [Compound 18.92, 2,6-Difluoro-3-(1-methyl-6-(1-oxa-7-azaspiro[3.5]nonan-7-y1)-1H-pyrazolo[3,4-d]pyrimidin-3-y1)-5-(trifluoromethyl)phenol] | < 100
15 | O=C(NC12CC(C1)C2)c1ccc2oc(-c3cc(O)c(F)c(F)c3)nc2c1 [Compound 1.09, N-(Bicyclo[1.1.1]pentan-1-yl)-2-(3,4-difluoro-5-hydroxyphenyl)benzo[d]oxazole-5-carboxamide] | < 100
16 | Cn1nc(-c2cc(C(F)(F)F)c(F)c(O)c2F)c2cnc(N3CCOC(C)(C#N)C3)cc21 (stereo not shown) [Compound 9.89, 4-(3-(2,4-Difluoro-3-hydroxy-5-(trifluoromethyl)phenyl)-1-methyl-1H-pyrazolo[4,3-c]pyridin-6-yl)-2-methylmorpholine-2-carbonitrile] | < 100
